Results: the NIST ThermoML archive (doi:10.1016/j.jct.2018.12.014)

Experiments:
[1] = 101 kPa, Liquid, Vibrating tube method
[2] = refractive index (Na D-line) (dimensionless); conditions: 101 kPa, Liquid, Standard Abbe refractometry
[3] = wn = mass fraction of the nth substance listed; conditions: 101 kPa, Liquid, Vibrating tube method, w2 = 0
[4] = refractive index (Na D-line) (dimensionless); wn = mass fraction of the nth substance listed; conditions: 101 kPa, Liquid, Standard Abbe refractometry, w2 = 0

CN(CCO)CCO [N-methyldiethanolamine]
Conditions	mass density, [1] [kg/m3]	refractive index, [2]
293.15 K	1040.31	1.46942
298.15 K	1036.42	1.46732
303.15 K	1032.55	1.46498
308.15 K	1028.7	1.46285
313.15 K	1025.14	1.46099
318.15 K	1021.34	1.45879
323.15 K	1017.55	1.4568
328.15 K	1013.89	1.45461
333.15 K	1010.07	1.45252
338.15 K	1006.37	1.45042
343.15 K	1002.33	1.44855
348.15 K	998.62	–
353.15 K	995.05	–

CN(CCO)CCO [N-methyldiethanolamine] + C[P+](c1ccccc1)(c1ccccc1)c1ccccc1.[Br-]
Conditions	mass density, [3] [kg/m3]	refractive index, [4]
293.15 K	1040.31	1.46942
298.15 K	1036.42	1.46732
303.15 K	1032.55	1.46498
308.15 K	1028.7	1.46285
313.15 K	1025.14	1.46099
318.15 K	1021.34	1.45879
323.15 K	1017.55	1.4568
328.15 K	1013.89	1.45461
333.15 K	1010.07	1.45252
338.15 K	1006.37	1.45042
343.15 K	1002.33	1.44855
348.15 K	998.62	–
353.15 K	995.05	–
